US8093209B2, “Methods of suppressing microglial activation and systemic inflammatory responses” (Cognosci, Incorporated, priority 2002, dated 2012)

Legend:
[1] = system: LPS-induced serum TNFα and IL-6 in C57-BL6 mice; assay: Intravenous LPS sepsis model, serum TNFα and IL-6 by ELISA; assay type: in vivo, mouse; settings: peptide 6.6 mg/kg, LPS 375 μg/kg i.v.
Description: In these methods, 14-16 week old male C57-BL6 mice were injected with LPS (11.25 μg in 150 μl sterile isotonic saline, or 375 μg/kg) via the tail vein, and then immediately with vehicle (isotonic sterile saline) or ApoE (133-149) (at a dose of 200 μg, in 100 μl, or 6.6 mg/kg, prepared in isotonic saline). Serum samples were obtained in both LPS+vehicle and LPS+peptide groups (n=10 animals/group) at the following timepoints: time 0 (prior to injection), 1 hour, 3 hour and 24 hours after injection. Blood was collected by transcardial puncture, and allowed to clot for 30 minutes. Serum samples, obtained after centrifugation at 16,000 g for 5 minutes, were screened by solid phase ELISA for TNFα and IL-6. There were 20 animals per time point.

[2] = system: primary rat neuronal/glial cultures exposed to NMDA; assay: NMDA-induced 45Ca uptake by primary neuronal-glial cultures; assay type: cell-based; settings: 6 μM peptide
Description: (§1) Primary neuronal-glial cultures were prepared from fetal Sprague-Dawley rat brains at 18 days of gestation as previously described (Pearlstein et al., 1998). Brains were harvested from 10-15 pups and dissected to separate cortex from meninges and subcortical structures using anatomical landmarks. Cortices were pooled and minced into 2 mm^3 pieces in a buffered salt solution supplemented with 20 mM HEPES buffer, pH 7.4, containing 0.25% trypsin. The tissue was incubated for 20 minutes at 37° C. in a 5% CO2/95% room air atmosphere, and washed twice with ice-cold, glutamine-free minimum essential medium (MEM; Life Technologies) containing 15 mM glucose, 5% fetal bovine serum (GIBCO), 5% horse serum (GIBCO), and 1% DNase-I (Sigma Chemical Co., St. Louis, Mo., USA). Tissue pieces were dissociated by trituration through a fire-polished 9-inch Pasteur pipette (I.D.=0.7 mm). The resultant suspension was centrifuged at 50×g for 10 min, the supernatant discarded, and the pellet resuspended in growth medium (MEM supplemented with 15 mM glucose, 5% fetal bovine serum, and 5% horse serum). The dissociated cells were plated to achieve a confluent monolayer using 4×10^5 cells per well in poly-D-lysine coated, 24-well culture plates (Falcon 3047; Becton Dickinson Co., Lincoln Park, N.J., USA). Cultures were maintained undisturbed at 37° C. in a humidified 5% CO2/95% room air atmosphere for 13-16 days prior to use.
Cellular calcium uptake from the extracellular space was assessed using ^45CaCl2 (American Radiolabeled Chemicals, St. Louis, Mo.). After washing the cultures with Mg^2+-free BSS containing 20 mM HEPES buffer, 6 μM peptide or 10 μM MK-801 was added to each well prior to and removed at the end of 100 μM NMDA exposure. ^45Ca (0.28 μCi/ml, 0.9 μCi/well) was added to each well immediately prior to NMDA exposure. The cultures were returned to the incubator and maintained at 37° C. Twenty minutes later, the exposure medium was removed and each well was washed 3 times with ice-cold Mg^2+-free BSS containing 20 mM HEPES buffer. The cells were subsequently lysed by addition of 0.2% sodium dodecyl sulfate (SDS). An aliquot from each well was added to a liquid scintillation vial containing 10 ml Cytoscint™ (ICN, Biochemical Research Product, CA) and radioactivity was determined by scintillation counting and normalized to cell count.

[3] = system: primary rat neuronal/glial cultures exposed to NMDA; assay: NMDA-induced LDH release in primary neuronal-glial cultures; assay type: cell-based
Description: as §1
Mature cultures (13-16 days in vitro) were washed with Mg^2+-free buffered salt solution (BSS) containing 20 mM HEPES buffer (pH7.4) and 1.8 mM CaCl2, prior to the addition of NMDA. Following NMDA exposure, cultures were maintained for 30 minutes at 37° C. in a 5% CO2/95% air atmosphere. The medium containing NMDA was then removed and replaced with MEM supplemented with 20 mM glucose. The cultures were returned to the incubator for 24 h. In all experiments, cellular damage was assessed at 24 h after exposure to NMDA by measurement of the activity of lactate dehydrogenase (LDH) released into the medium as described below. The non-competitive NMDA receptor antagonist, MK-801 (Tocris Cookson Ins., St. Louis, Mo.) at a concentration of 10 μM was used as a positive control. Preliminary dose-response studies were performed to determine the concentration of NMDA (100 μM) required to effect a near-maximal LDH release (ED90) as used in the present study.
The effect of human recombinant apoE (Panverra, Madison, Wis.) on 100 μM NMDA-induced LDH release was assessed and the dose-response curve was obtained (apoE: 0.1-10 μM final concentration). ApoE3, the most common human isoform, was added to the cultures 30 minutes prior to and removed following NMDA exposure. The effect of apoE peptide (133-149) on NMDA (100 μM or 300 μM)-induced LDH release was next assessed and the dose-response curve was obtained in a separate set of sister cultures that were simultaneously treated under one of the following conditions: (1) various doses of peptide (0.3 μM, 1 μM, 3 μM, 6 μM, 10 μM final concentration) were added to the culture immediately prior to and removed at the end of NMDA exposure; (2) no peptide, NMDA exposure; (3) no peptide, no NMDA exposure; (4) no peptide, NMDA exposure with 10 μM MK-801 for 30 minutes. The effect of a scrambled control peptide on NMDA-induced LDH release was similarly assessed.
The effect of time of administration of apoE peptide (133-149) on NMDA-induced LDH release was assessed in a separate set of sister cultures that were simultaneously treated under one of following conditions: (1) peptide was added to the culture medium 24 h prior to and removed immediately before exposure to NMDA; (2) peptide was added immediately prior to and removed at the end of the NMDA exposure; (3) peptide was added immediately following the 30 minutes NMDA exposure; (4) no peptide, NMDA exposure; (5) no peptide, no NMDA exposure. […]

[4] = system: mice with midline closed head injury; assay: Murine closed head injury model (rotorod, weight, Morris Water Maze, survival); assay type: in vivo, mouse
Excerpt: The mice received a midline closed head injury delivered by a pneumatic impactor at a speed of 6.8 m/s.

[5] = system: thioglycollate-elicited peritoneal macrophages; assay: [Ca2+]i in Fura-2/AM treated single macrophages, digital imaging microscopy (Example 10); assay type: cell-based, mouse; settings: 1000-fold molar excess RAP, 10 mM NiCl2, or 1 μg/ml pertussis toxin 12 h
Description: Macrophage Harvesting. All experiments involving animals were first approved by the Duke Institutional Animal Care and Use Committee. Pathogen-free female C57BL/6 mice and ApoE deficient mice previously backcrossed 10 times to the C57BL/6 strain were obtained from the Jackson Laboratory (Bar Harbor, Me.). Thioglycollate-elicited peritoneal macrophages were harvested by peritoneal lavage using 10 ml of ice-cold Hanks' balanced salt solution containing 10 mM HEPES and 3.5 mM NaHCO3 (HHBSS), pH 7.4. The macrophages were pelleted by centrifugation at 4° C. at ˜800×g for 10 min and resuspended in RPMI 1640 media supplemented with 25 mM HEPES, 12.5 U/ml penicillin, 6.5 mg/ml streptomycin, and 5% fetal bovine serum.
Measurement of [Ca^2+]i in apoE and peptide treated macrophage. Changes in [Ca^2+]i levels in Fura-2/AM treated single cells were quantified using digital imaging microscopy in accordance with known techniques. Macrophages were plated on glass coverslips sitting in 35 mm Petri dishes at a density of 1.5×10^5 cells/cm^2, and allowed to adhere for 2 h in a humidified 5% CO2 incubator at 37° C. The non-adherent cells were aspirated and the monolayers were washed twice with HHBSS. 4 μM Fura-2/AM was incubated with the cells for thirty min in the dark at room temperature and [Ca^2+]i was subsequently measured using a digital imaging microscope in accordance with known techniques. […] To determine if signaling resulted from ligation of the ligand to LRP, cells were preincubated with a 1000-fold molar excess of RAP or 10 mM NiCl2, both of which inhibit ligand binding to LRP, for 5 min prior to stimulation with apoE or peptide. In experiments in which the involvement of a G protein was assessed, monolayers were incubated with 1 μg/ml pertussis toxin for 12 h at 37° C. and Ca^2+ measurements were made as stated above.

peritoneal macrophage = assay: Intracellular calcium in Fura-2/AM loaded peritoneal macrophage (Example 4); assay type: cell-based, mouse; settings: preincubation with 100 molar excess of RAP
Description: Thioglycolate-elicited peritoneal macrophage were harvested from 8-week old C57-BL6 mice, and plated at a density of 4×10^3 cells on glass coverslips, loaded with 2.5 μM Fura-2/AM for thirty minutes, and washed with Hanks buffered solution containing […] calcium. After exposure to 5 nM human recombinant apoE3 or E4, intracellular calcium was measured by Zeiss digital microscopy.

Row | Molecule | serum IL-6 versus LPS+vehicle ([1]; 1 and 3 hours post-injection) | serum TNFα versus LPS+vehicle ([1]; 1 hour post-injection) | NMDA-induced calcium influx compared to NMDA alone ([2]; 100 μM NMDA) | calcium influx in absence of NMDA ([2]; no NMDA) | protection against NMDA (LDH release), timing ([3]; 6 μM peptide 24 hours prior to NMDA exposure) | protection against NMDA (LDH release), timing ([3]; 6 μM peptide added following NMDA exposure) | protection against NMDA (LDH release), timing ([3]; 6 μM peptide concurrent with 100 μM NMDA) | protection against NMDA-induced cell damage, truncated peptides ([3]; 6 μM peptide, 100 μM NMDA) | peptide concentration at which protection was first observed ([3]; 100 μM NMDA) | peptide concentration of maximal protection ([3]; 100 μM NMDA) | protection against NMDA toxicity (LDH release) ([3]; 300 μM NMDA) | protection against NMDA toxicity (LDH release), dose response ([3]; peptide 0.3-10 μM, 100 μM NMDA) | learning to find hidden platform, Morris Water Maze ([4]; 21 days after injury, p<0.05) | weight loss after closed head injury ([4]; high dose 406 ug/kg i.v.) | rotorod latency (motor deficit) after closed head injury ([4]; high dose 406 ug/kg i.v. 30 min after injury) | acute survival, Kaplan-Meier analysis ([4]; mouse, in vivo) | duration of protective effect of single dose ([4]; p<0.05) | effect of preincubation on apoE-induced [Ca2+]i increase [5] | block of ApoE-induced intracellular calcium mobilization (peritoneal macrophage)
1 | LRVRLAS HLRKLRKRLL (LRVRLASHLRKLRKRLL; fragment of receptor-binding domain of human ApoE; listed as Homo sapiens) [ApoE (133-149), 17-mer, ApoE positions 133-149] | significantly reduced | significantly reduced | significantly decreased calcium influx | no direct effect on calcium influx | modest but significant protection | no protection | robust protection | completely blocked 100 μM NMDA-induced cell death | 3 μm | 6 µM | failed to protect cells at any peptide concentration | robust, dose-dependent protection | appeared to provide protection in learning deficits | protected animals from this motor deficit (FIG. 10A), and concomitant weight loss | protected animals from this motor deficit | significant improvement in acute survival | sustained for five days following injury | – | –
2 | RAP: 39 kD protein that blocks the binding of all known ligands to LRP (protein, UniProt P30533 35-357, looked up) Alpha-2-macroglobulin …: YSREKNQPKPSPKRESGEEFRMEKLNQLWEKAQRLHLPPVRLAELHADLKIQERDELAWKKLKLDGLDEDGEKEARLIRNLNVILAKYGLDGKKDARQVTSNSLSGTQEDGLDDPRLEKLWHKAKTSGKFSGEELDKLWREFLHHKEKVHEYNVLLETLSRTEEIHENVISPSDLSDIKGSVLHSRHTELKEKLRSINQGLDRLRRVSHQGYSTEAEFEEPRVIDLWDLAQSANLTDKELEAFREELKHFEAKIEKHNHYQKQLEIAHEKLRHAESVGDGERVSRSREKHALLEGRTKELGYTVKKHLQDLSGRISRARHNEL | – | – | – | – | – | – | – | – | – | – | – | – | – | – | – | – | – | markedly attenuated the [Ca^2+]i increases | did not block this effect
